What was measured:
velvetleaf [1] = test: Test A pre-/postemergence herbicide test; format: in vivo, Abutilon theophrasti; details: for Plant response rating, Velvetleaf: Postemergence; for Velvetleaf plant response rating: Preemergence
Summary of the method: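 Pre: seeded sandy loam, directed soil spray, compound in non-phytotoxic solvent + surfactant. Post: 1–2-leaf plants (2–10 cm), sprayed to runoff. Greenhouse ~10 d; visual injury vs untreated, 0–100 scale.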

soybean = test: Test C pre-/postemergence herbicide test; format: in vivo, Glycine max; details: for Soybean plant response rating: 500 g ai/ha
Summary of the method: (§1)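 Visual injury scores run from 0 (no effect) to 100 (complete control), assessed relative to untreated controls 12 to 14 days after treatment in the greenhouse. Chemicals were formulated in a non-phytotoxic solvent mixture with surfactant and applied to soil after planting or to emerged plants at the 1- to 4-leaf stage.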

cocklebur = test: Test C pre-/postemergence herbicide test; format: in vivo, Xanthium strumarium; details: for Cocklebur plant response rating: 500 g ai/ha
Summary of the method: as §1

kochia = test: Test C pre-/postemergence herbicide test; format: in vivo, Kochia scoparia; details: for Kochia plant response rating: 500 g ai/ha
Summary of the method: as §1

velvetleaf [2] = test: Test B pre-/postemergence herbicide test; format: in vivo, Abutilon theophrasti; details: for Velvetleaf plant response rating: Preemergence, scale 0 to 100
Summary of the method: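 Pre: seeds sown, then sprayed. Post: 1–4-leaf plants (2–18 cm) sprayed at the same time. Paddy: flooded, treated at 2-leaf stage. Formulation: non-phytotoxic solvent with surfactant. Greenhouse 13–15 days; visual 0–100 score relative to controls.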

yellow nutsedge = test: Test C pre-/postemergence herbicide test; format: in vivo, Cyperus esculentus; details: for Nutsedge, Yellow plant response rating: 500 g ai/ha
Summary of the method: as §1

bermudagrass = test: Test C pre-/postemergence herbicide test; format: in vivo, Cynodon dactylon
Summary of the method: as §1

large crabgrass = test: Test C pre-/postemergence herbicide test; format: in vivo, Digitaria sanguinalis; details: for Plant response rating (0 = no effect, 100 = complete control), Crabgrass, Large: 62 g ai/ha; for Crabgrass, Large plant response rating: 500 g ai/ha
Summary of the method: as §1

[3] = 2000 g ai/ha, 0 to 100 scale, 0 no effect, 100 complete control
[4] = 500 g ai/ha, visual rating, 0 to 100 scale (0 no effect, 100 complete control)
[5] = 31 g ai/ha, preemergence, scale 0 to 100
[6] = postemergence, 125 g ai/ha, scale 0 to 100
[7] = postemergence, 31 g ai/ha, scale 0 to 100
[8] = postemergence, 62 g ai/ha, scale 0 to 100
[9] = 125 g ai/ha, scale 0-100, preemergence
[10] = Postemergence, 125 g ai/ha, scale 0 to 100, 0 no effect, 100 complete control
[11] = postemergence, 16 g ai/ha, scale 0 to 100
[12] = Postemergence, 500 g ai/ha, visual rating after 13 to 15 days, scale 0 (no effect) to 100 (complete control)
[13] = preemergence, 125 g ai/ha, 0 to 100 scale, 0 is no effect, 100 is complete control
[14] = 125 g ai/ha, scale 0 (no effect) to 100 (complete control), visual, 12 to 14 days, preemergence
[15] = 250 g ai/ha, scale 0 to 100 (0 no effect, 100 complete control), visual, 12 to 14 days, preemergence
[16] = Postemergence, 250 g ai/ha, scale 0 to 100, 0 no effect, 100 complete control
[17] = Preemergence, scale 0 to 100, 0 no effect, 100 complete control

C=Cn1nc(C(C)(C)C)cc1C(=O)Nc1cccc(C(=O)NCC)c1 [Compound 33]
Plant response rating, Velvetleaf (velvetleaf [1]; 500 g ai/ha, 0 to 100 scale, 0 no effect, 100 complete control): 30 | Plant response rating, Velvetleaf (velvetleaf [1]; [3]): 40 | Velvetleaf plant response rating (velvetleaf [1]; [4]): 20 | Velvetleaf plant response rating (velvetleaf [1]; [3]): 80 | Plant response rating, Soybean (soybean; [5]): 0 | Plant response rating (0 = no effect, 100 = complete control), Soybean (soybean; 62 g ai/ha, preemergence): 0 | Plant response rating, Soybean (soybean; [6]): 90 | Plant response rating, Soybean (soybean; [7]): 80 | Plant response rating, Soybean (soybean; [8]): 80 | Plant response rating, Cocklebur (cocklebur; [5]): 0 | Plant response rating (0 = no effect, 100 = complete control), Cocklebur (cocklebur; 62 g ai/ha, preemergence): 0 | Plant response rating, Cocklebur (cocklebur; [9]): 30 | Plant response rating, Cocklebur (cocklebur; [10]): 70 | Plant response rating, Cocklebur (cocklebur; [11]): 20 | Plant response rating, Cocklebur (cocklebur; [8]): 50 | Plant response rating, Kochia (kochia; [5]): 80 | Plant response rating (0 = no effect, 100 = complete control), Kochia (kochia; 62 g ai/ha, preemergence): 100 | Plant response rating, Kochia (kochia; [9]): 100 | Plant response rating, Kochia (kochia; [10]): 90 | Plant response rating, Kochia (kochia; [7]): 60 | Plant response rating, Kochia (kochia; [8]): 90 | Plant response rating, Velvetleaf (velvetleaf [2]; [12]): 60 | Velvetleaf plant response rating (velvetleaf [2]; 500 g ai/ha): 80 | Plant response rating, Velvetleaf (velvetleaf [2]; [13]): 40 | Plant response rating, Nutsedge, Yellow (yellow nutsedge; 16 g ai/ha, scale 0 to 100, last section of Table C, preemergence): 0 | Plant response rating, Nutsedge, Yellow (yellow nutsedge; [5]): 0 | Plant response rating (0 = no effect, 100 = complete control), Nutsedge, Yellow (yellow nutsedge; 62 g ai/ha, preemergence): 0 | Plant response rating, Nutsedge, Yellow (yellow nutsedge; [6]): 10 | Plant response rating, Nutsedge, Yellow (yellow nutsedge; [7]): 0 | Plant response rating, Nutsedge, Yellow (yellow nutsedge; [8]): 0 | Plant response rating, Bermudagrass (bermudagrass; 16 g ai/ha, scale 0 to 100, 0 no effect, 100 complete control, last section of Table C (species set of preemergence test)): 30 | Plant response rating, Bermudagrass (bermudagrass; [5]): 50 | Plant response rating (0 = no effect, 100 = complete control), Bermudagrass (bermudagrass; 62 g ai/ha, preemergence): 80 | Plant response rating, Bermudagrass (bermudagrass; [9]): 90 | Plant response rating, Bermudagrass (bermudagrass; [10]): 30 | Plant response rating, Bermudagrass (bermudagrass; [11]): 0 | Plant response rating, Bermudagrass (bermudagrass; [7]): 20 | Plant response rating, Bermudagrass (bermudagrass; [8]): 20 | Plant response rating, Crabgrass, Large (large crabgrass; [5]): 90 | Plant response rating (0 = no effect, 100 = complete control), Crabgrass, Large (large crabgrass; preemergence): 100 | Plant response rating, Crabgrass, Large (large crabgrass; [9]): 100 | Plant response rating, Crabgrass, Large (large crabgrass; [10]): 50 | Plant response rating, Crabgrass, Large (large crabgrass; [7]): 40

C=CCNC(=O)c1cccc(NC(=O)c2cc(C(C)(C)C)nn2CC)c1 [Compound 46]
Plant response rating, Velvetleaf (velvetleaf [1]; [3]): 75 | Velvetleaf plant response rating (velvetleaf [1]; [4]): 30 | Velvetleaf plant response rating (velvetleaf [1]; [3]): 85 | Plant response rating (0 = no effect, 100 = complete control), Soybean (soybean; 62 g ai/ha, preemergence): 0 | Plant response rating, Soybean (soybean; [14]): 0 | Plant response rating, Soybean (soybean; [15]): 10 | Soybean plant response rating (soybean; Postemergence, scale 0 to 100): 100 | Plant response rating, Soybean (soybean; [16]): 100 | Soybean plant response rating (soybean; [17]): 10 | Plant response rating, Soybean (soybean; [8]): 100 | Plant response rating (0 = no effect, 100 = complete control), Cocklebur (cocklebur; 62 g ai/ha, preemergence): 0 | Plant response rating, Cocklebur (cocklebur; [14]): 40 | Plant response rating, Cocklebur (cocklebur; [15]): 90 | Cocklebur plant response rating (cocklebur; Postemergence, scale 0 to 100): 90 | Plant response rating, Cocklebur (cocklebur; [10]): 70 | Plant response rating, Cocklebur (cocklebur; [16]): 70 | Cocklebur plant response rating (cocklebur; [17]): 90 | Plant response rating, Cocklebur (cocklebur; [8]): 60 | Plant response rating (0 = no effect, 100 = complete control), Kochia (kochia; 62 g ai/ha, preemergence): 0 | Plant response rating, Kochia (kochia; [14]): 90 | Plant response rating, Kochia (kochia; [15]): 100 | Kochia plant response rating (kochia; Postemergence, scale 0 to 100): 100 | Plant response rating, Kochia (kochia; [16]): 100 | Kochia plant response rating (kochia; [17]): 100 | Plant response rating, Kochia (kochia; [8]): 90 | Plant response rating, Velvetleaf (velvetleaf [2]; [12]): 80 | Velvetleaf plant response rating (velvetleaf [2]; 500 g ai/ha): 100 | Plant response rating, Velvetleaf (velvetleaf [2]; [13]): 50 | Plant response rating (0 = no effect, 100 = complete control), Nutsedge, Yellow (yellow nutsedge; 62 g ai/ha, preemergence): 0 | Plant response rating, Nutsedge, Yellow (yellow nutsedge; [14]): 0 | Plant response rating, Nutsedge, Yellow (yellow nutsedge; [15]): 0 | Nutsedge, Yellow plant response rating (yellow nutsedge; Postemergence, scale 0 to 100): 40 | Plant response rating, Nutsedge, Yellow (yellow nutsedge; [16]): 20 | Nutsedge, Yellow plant response rating (yellow nutsedge; [17]): 0 | Plant response rating, Nutsedge, Yellow (yellow nutsedge; [8]): 20 | Plant response rating (0 = no effect, 100 = complete control), Bermudagrass (bermudagrass; 62 g ai/ha, preemergence): 90 | Plant response rating, Bermudagrass (bermudagrass; [14]): 100 | Plant response rating, Bermudagrass (bermudagrass; [15]): 100 | Plant response rating, Bermudagrass (bermudagrass; [10]): 100 | Bermudagrass plant response rating (bermudagrass; Preemergence, 500 g ai/ha, scale 0 to 100, 0 no effect, 100 complete control): 100 | Plant response rating (0 = no effect, 100 = complete control), Crabgrass, Large (large crabgrass; preemergence): 100 | Plant response rating, Crabgrass, Large (large crabgrass; [14]): 100 | Plant response rating, Crabgrass, Large (large crabgrass; [15]): 100 | Crabgrass, Large plant response rating (large crabgrass; Postemergence, scale 0 to 100): 90 | Plant response rating, Crabgrass, Large (large crabgrass; [10]): 90 | Plant response rating, Crabgrass, Large (large crabgrass; [16]): 90 | Crabgrass, Large plant response rating (large crabgrass; [17]): 100

From US20060069132A1, “Azolecarboxamide herbicides” (priority 2004, published 2006)
